Test results: PubChem BioAssay (NCI)
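Protocol summary: plate cells (96-well), add compound at 5 concentrations, incubate 48 h, interpolate endpoints linearly. GI50 = concentration required for 50% inhibition of growth. The concentration for full growth arrest is given as TGI.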

Assays:
Assay in all cases: DTP human tumour cell line panel, 48 h
DU-145 prostate = test system: DU-145 prostate
SK-MEL-5 melanoma = test system: SK-MEL-5 melanoma
HOP-92 NSCLC = test system: HOP-92 NSCLC
K-562 leukemia = test system: K-562 leukemia
HCC-2998 colon = test system: HCC-2998 colon
MDA-MB-231 breast = test system: MDA-MB-231 breast
TK-10 renal = test system: TK-10 renal
HCT-116 colon = test system: HCT-116 colon
MOLT-4 leukemia = test system: MOLT-4 leukemia
SK-OV-3 ovarian = test system: SK-OV-3 ovarian
OVCAR-3 ovarian = test system: OVCAR-3 ovarian
OVCAR-4 ovarian = test system: OVCAR-4 ovarian
786-0 renal = test system: 786-0 renal
UO-31 renal = test system: UO-31 renal
IGROV1 ovarian = test system: IGROV1 ovarian
U251 CNS = test system: U251 CNS
A498 renal = test system: A498 renal
M14 melanoma = test system: M14 melanoma
NCI-H226 lung = test system: NCI-H226 lung
HS 578T breast = test system: HS 578T breast
EKVX NSCLC = test system: EKVX NSCLC
COLO 205 colon = test system: COLO 205 colon
HT29 colon = test system: HT29 colon
HCT-15 colon = test system: HCT-15 colon
UACC-62 melanoma = test system: UACC-62 melanoma
SK-MEL-2 melanoma = test system: SK-MEL-2 melanoma
CCRF-CEM leukemia = test system: CCRF-CEM leukemia
SF-295 CNS = test system: SF-295 CNS
SNB-19 CNS = test system: SNB-19 CNS
NCI-H460 lung = test system: NCI-H460 lung
MCF7 breast = test system: MCF7 breast
ACHN renal = test system: ACHN renal
OVCAR-5 ovarian = test system: OVCAR-5 ovarian
SF-268 CNS = test system: SF-268 CNS
NCI/ADR-RES ovarian = test system: NCI/ADR-RES ovarian
SR leukemia = test system: SR leukemia
RXF 393 renal = test system: RXF 393 renal
T-47D breast = test system: T-47D breast
UACC-257 melanoma = test system: UACC-257 melanoma
NCI-H522 lung = test system: NCI-H522 lung
LOX IMVI melanoma = test system: LOX IMVI melanoma
RPMI-8226 leukemia = test system: RPMI-8226 leukemia
MALME-3M melanoma = test system: MALME-3M melanoma
CAKI-1 renal = test system: CAKI-1 renal
SK-MEL-28 melanoma = test system: SK-MEL-28 melanoma
HL-60(TB) leukemia = test system: HL-60(TB) leukemia
PC-3 prostate = test system: PC-3 prostate
BT-549 breast = test system: BT-549 breast
SW-620 colon = test system: SW-620 colon
MDA-MB-435 = test system: MDA-MB-435
OVCAR-8 ovarian = test system: OVCAR-8 ovarian
SNB-75 CNS = test system: SNB-75 CNS
KM12 colon = test system: KM12 colon
HOP-62 NSCLC = test system: HOP-62 NSCLC
SN12C renal = test system: SN12C renal
SF-539 CNS = test system: SF-539 CNS
A549 NSCLC = test system: A549 NSCLC

## c1ccc2c(NCCCn3ccnc3)c3oc4ccccc4c3nc2c1
DU-145 prostate
  GI50: 2.63 µM
  TGI: 15.5 µM
SK-MEL-5 melanoma
  GI50: 2.27 µM
  TGI: 5.14 µM
HOP-92 NSCLC
  GI50: 1.11 µM
  TGI: 3.68 µM
K-562 leukemia
  GI50: 1.81 µM
  TGI: > 100 µM
HCC-2998 colon
  GI50: 1.36 µM
  TGI: 2.99 µM
MDA-MB-231 breast
  GI50: 2.04 µM
  TGI: 7.73 µM
TK-10 renal
  GI50: 3.29 µM
  TGI: 8.62 µM
HCT-116 colon
  GI50: 0.518 µM
  TGI: 10.3 µM
MOLT-4 leukemia
  GI50: 0.524 µM
  TGI: 71.8 µM
SK-OV-3 ovarian
  GI50: 2.3 µM
  TGI: 6.85 µM
OVCAR-3 ovarian
  GI50: 3.38 µM
  TGI: > 100 µM
OVCAR-4 ovarian
  GI50: 2.12 µM
  TGI: 7.47 µM
786-0 renal
  GI50: 2.57 µM
  TGI: 13.2 µM
UO-31 renal
  GI50: 1.42 µM
  TGI: 3.28 µM
IGROV1 ovarian
  GI50: 2.82 µM
  TGI: 10.8 µM
U251 CNS
  GI50: 2.33 µM
  TGI: 10.3 µM
A498 renal
  GI50: 2.89 µM
  TGI: 9.13 µM
M14 melanoma
  GI50: 1.89 µM
  TGI: 3.56 µM
NCI-H226 lung
  GI50: 1.94 µM
  TGI: 4.7 µM
HS 578T breast
  GI50: 2.79 µM
  TGI: 14 µM
EKVX NSCLC
  GI50: 2.8 µM
  TGI: 11 µM
COLO 205 colon
  GI50: 1.42 µM
  TGI: 3.04 µM
HT29 colon
  GI50: 1.05 µM
  TGI: 3.08 µM
HCT-15 colon
  GI50: 1.79 µM
  TGI: 10.6 µM
UACC-62 melanoma
  GI50: 2.01 µM
  TGI: 4.62 µM
SK-MEL-2 melanoma
  GI50: 1.85 µM
  TGI: 3.6 µM
CCRF-CEM leukemia
  GI50: 2.35 µM
  TGI: 18 µM
SF-295 CNS
  GI50: 2.53 µM
  TGI: 10.5 µM
SNB-19 CNS
  GI50: 2.6 µM
  TGI: 14.2 µM
NCI-H460 lung
  GI50: 1.27 µM
  TGI: 8.27 µM
MCF7 breast
  GI50: 1.78 µM
  TGI: 7.62 µM
ACHN renal
  GI50: 0.942 µM
  TGI: 10.5 µM
OVCAR-5 ovarian
  GI50: 1.99 µM
  TGI: 6.54 µM
SF-268 CNS
  GI50: 2.2 µM
  TGI: 12.1 µM
NCI/ADR-RES ovarian
  GI50: 1.87 µM
  TGI: 6.18 µM
SR leukemia
  GI50: 1.73 µM
  TGI: > 100 µM
RXF 393 renal
  GI50: 1.41 µM
  TGI: 3.23 µM
T-47D breast
  GI50: 2.31 µM
  TGI: 8.53 µM
UACC-257 melanoma
  GI50: 2.35 µM
  TGI: 6 µM
NCI-H522 lung
  GI50: 1.58 µM
  TGI: 3.63 µM
LOX IMVI melanoma
  GI50: 1.35 µM
  TGI: 3.3 µM
RPMI-8226 leukemia
  GI50: 2.04 µM
  TGI: 5.62 µM
MALME-3M melanoma
  GI50: 2.66 µM
  TGI: 6.23 µM
CAKI-1 renal
  GI50: 1.7 µM
  TGI: 6.56 µM
SK-MEL-28 melanoma
  GI50: 2.15 µM
  TGI: 4.32 µM
HL-60(TB) leukemia
  GI50: 2.5 µM
  TGI: 7.72 µM
PC-3 prostate
  GI50: 2.08 µM
  TGI: 6.85 µM
BT-549 breast
  GI50: 1.98 µM
  TGI: 4.75 µM
SW-620 colon
  GI50: 0.792 µM
  TGI: 10.9 µM
MDA-MB-435
  GI50: 2.13 µM
  TGI: 5.2 µM
OVCAR-8 ovarian
  GI50: 1.58 µM
  TGI: 4.55 µM
SNB-75 CNS
  GI50: 1.85 µM
  TGI: 4.93 µM
KM12 colon
  GI50: 2.51 µM
  TGI: > 100 µM
HOP-62 NSCLC
  GI50: 1.59 µM
  TGI: 4.3 µM
SN12C renal
  GI50: 1.7 µM
  TGI: 11 µM
SF-539 CNS
  GI50: 1.71 µM
  TGI: 3.94 µM

## Nc1nc(N)c2c(n1)NC(c1ccc(F)cc1)CC(c1ccc(Nc3nc(NCCO)nc(Nc4ccc(Cl)cc4)n3)cc1)=N2 (stereo not given)
DU-145 prostate
  GI50: 1.75 µM
  TGI: 3.5 µM
SK-MEL-5 melanoma
  GI50: 1.46 µM
  TGI: 2.78 µM
HOP-92 NSCLC
  GI50: 1.25 µM
  TGI: 3.54 µM
K-562 leukemia
  GI50: 0.489 µM
  TGI: > 100 µM
A549 NSCLC
  GI50: 3.12 µM
  TGI: > 100 µM
HCC-2998 colon
  GI50: 1.61 µM
  TGI: 3.05 µM
TK-10 renal
  GI50: 4.61 µM
  TGI: 15.5 µM
HCT-116 colon
  GI50: 1.2 µM
  TGI: 2.5 µM
MOLT-4 leukemia
  GI50: 0.532 µM
  TGI: 3.47 µM
SK-OV-3 ovarian
  GI50: 12.9 µM
  TGI: 25.5 µM
OVCAR-3 ovarian
  GI50: 1.58 µM
  TGI: 3.28 µM
OVCAR-4 ovarian
  GI50: 1.93 µM
  TGI: 6.43 µM
786-0 renal
  GI50: 1.36 µM
  TGI: 3.11 µM
UO-31 renal
  GI50: 3.07 µM
  TGI: 20.4 µM
U251 CNS
  GI50: 1.37 µM
  TGI: 2.73 µM
A498 renal
  GI50: 3.72 µM
  TGI: 15.3 µM
M14 melanoma
  GI50: 1.66 µM
  TGI: 3.3 µM
NCI-H226 lung
  GI50: 2.49 µM
  TGI: 7.11 µM
EKVX NSCLC
  GI50: 1.66 µM
  TGI: 5.35 µM
COLO 205 colon
  GI50: 1.49 µM
  TGI: 2.94 µM
HT29 colon
  GI50: 1.42 µM
  TGI: 3.15 µM
HCT-15 colon
  GI50: 1.03 µM
  TGI: 2.84 µM
SK-MEL-2 melanoma
  GI50: 1.67 µM
  TGI: 3.1 µM
SF-295 CNS
  GI50: 1.96 µM
  TGI: 3.75 µM
NCI-H460 lung
  GI50: 1.71 µM
  TGI: 3.63 µM
MCF7 breast
  GI50: 0.956 µM
  TGI: 2.43 µM
ACHN renal
  GI50: 3.22 µM
  TGI: 17.3 µM
OVCAR-5 ovarian
  GI50: 5.1 µM
  TGI: 24.4 µM
SF-268 CNS
  GI50: 2.85 µM
  TGI: 12.3 µM
NCI/ADR-RES ovarian
  GI50: 7.73 µM
  TGI: > 100 µM
SR leukemia
  GI50: 0.672 µM
  TGI: 4.75 µM
RXF 393 renal
  GI50: 1.17 µM
  TGI: 2.63 µM
T-47D breast
  GI50: 1.27 µM
  TGI: 3.2 µM
UACC-257 melanoma
  GI50: 1.85 µM
  TGI: 3.52 µM
NCI-H522 lung
  GI50: 1.43 µM
  TGI: 2.97 µM
RPMI-8226 leukemia
  GI50: 1.01 µM
  TGI: 3.24 µM
CAKI-1 renal
  GI50: 6.14 µM
  TGI: 39.6 µM
SK-MEL-28 melanoma
  GI50: 1.7 µM
  TGI: 3.18 µM
HL-60(TB) leukemia
  GI50: 0.863 µM
  TGI: 3.51 µM
PC-3 prostate
  GI50: 1.72 µM
  TGI: 11.4 µM
BT-549 breast
  GI50: 1.56 µM
  TGI: 3.17 µM
SW-620 colon
  GI50: 1.6 µM
  TGI: 3.27 µM
MDA-MB-435
  GI50: 1.7 µM
  TGI: 3.55 µM
OVCAR-8 ovarian
  GI50: 1.16 µM
  TGI: 2.81 µM
SNB-75 CNS
  GI50: 3.35 µM
  TGI: 16 µM
KM12 colon
  GI50: 1.68 µM
  TGI: 3.71 µM
HOP-62 NSCLC
  GI50: 1.77 µM
  TGI: 4.3 µM
SN12C renal
  GI50: 2.08 µM
  TGI: 5.19 µM
SF-539 CNS
  GI50: 1.56 µM
  TGI: 3.15 µM
